We go through two molecules from US7947733B2, “Phosphorylated pyrone analogs and methods” (Limerick BioPharma, priority 2007, dated 2011).

Structures are written as SMILES. Values joined by “and” are separate entries in the source; they are usually repeats but may differ in a detail not shown here. Identical values can stand only once.

In one data set the test system is rats. Put plainly: Blood glucose levels in rats co-administered with quercetin-3′-O-phosphate and tacrolimus. The class given is in vivo, rat. To be noted: for Blood glucose, Mean change from all vehicle control / Blood glucose, Mean change from Day 1: Prograf 0.5 mg/kg i.p. + Vehicle 1; for Blood glucose, Mean: Prograf 0.5 mg/kg i.p. Day 1 to Day 25 + Vehicle 1, 5 rats; for Blood glucose, individual rats: Prograf 0.5 mg/kg i.p. once daily Day 1 to Day 25 + Vehicle 1 Day 11 to Day 25. On the procedure: One set of 5 rats is treated from day 1 to day 25 with inert vehicle 2 intraperitoneally and treated from day 11 to day 25 with inert vehicle 1 intraperitoneally. […] A third set 5 of rats is treated from day 1 to day 25 with tacrolimus (Prograf®) intraperitoneally at 0.5 mg/kg, and treated from day 11 to day 25 intraperitoneally with quercetin-3′-O-phosphate (Q-Phosphate) at 114 mg/kg. The blood glucose level in the rats is measured on days 1, 10, 15, 20, and 25.

For a further data set, the system named is kidney of rats. Put plainly: Renal pathology in rats co-administered with quercetin-3′-O-phosphate and tacrolimus. The class given is in vivo, rat. The note with it: tacrolimus (Prograf) 0.5 mg/kg and inert vehicle, 25 days. How it is done:
Tissue is removed from the kidney of rats treated with tacrolimus (Prograf®) at 0.5 mg/kg and inert vehicle, and from rats treated with tacrolimus (Prograf®) at 0.5 mg/kg and quercetin-3′-O-phosphate (Q-Phosphate) at 11 mg/kg, 28 mg/kg, and at 114 mg/kg for 25 days. […] The tissue from rats treated with Q-Phosphate and tacrolimus show no vacuoles.

For data set [1] the following is noted: in vivo; cited from earlier work.

On to `C=CC[C@@H]1/C=C(\C)C[C@H](C)C[C@H](OC)[C@H]2O[C@@](O)(C(=O)C(=O)N3CCCC[C@H]3C(=O)O[C@H](/C(C)=C/[C@@H]3CC[C@@H](O)[C@H](OC)C3)[C@H](C)[C@@H](O)CC1=O)[C@H](C)C[C@@H]2OC` [Prograf ®, tacrolimus, reference compound], for which the “Blood glucose, Mean change from all vehicle control” value in the data set with rats (Day 1) was -0.10 g/L; in the data set on rats (Day 10) it was “+0.23 g/l”; in the data set with rats (Day 15), “+1.27 g/l”; in the data set with rats (Day 20) it was “+1.81 g/l”; with rats (Day 25) it was “+1.38 g/l”. Besides, the “Blood glucose, Mean” value in the data set with rats (Day 1) was found to be 1.27 g/L; in the data set with rats (Day 10), 1.49 g/L; in the data set on rats (Day 15) it was 2.54 g/L; in the data set with rats (Day 20), 2.93 g/L; in the data set with rats (Day 25), 2.55 g/L. For the same molecule, the “Blood glucose, individual rats” value with rats (Day 1) is 1.16 g/l (2×) and 1.34 g/l and 1.22 g/l and 1.47 g/l; in the data set with rats (Day 10) it was 1.30 g/L and 1.39 g/L and 1.40 g/L and 1.09 g/L and 2.25 g/L; in the data set on rats (Day 15) it was 3.72 g/L and 1.67 g/L and 2.31 g/L and 1.97 g/L and 3.02 g/L; with rats (Day 20) it was 2.79 g/L and 3.70 g/L and 2.97 g/L and 2.41 g/L and 2.77 g/L; with rats (Day 25), 0.97 g/L and 3.16 g/L and 1.69 g/L and 2.98 g/L and 3.96 g/L. Besides, the “Blood glucose, Mean change from Day 1” value with rats (Day 10) is “+0.22 g/l”; in the data set with rats (Day 15), “+1.27 g/l”; in the data set with rats (Day 20), “+1.66 g/l”; in the data set with rats (Day 25), “+1.28 g/l”. The “vacuolation of kidney tissue” value in the data set on kidney of rats was “significant vacuolation”.
Regarding `O=c1c(O)c(-c2ccc(O)c(O)c2)oc2cc(O)cc(O)c12` [quercetin aglycone, quercetin], the serum half-life in data set [1] is 19 to 25 h.
